The subject of one experiment is ANGPTL3. Kind of experiment: RNA-seq of ANGPTL3 expression in compound-treated primary human hepatocytes. It counts as cell-based. The settings on record: additional compounds (Table 13), linear fold change. The procedure: (§1) Human hepatocytes were obtained from two donors from Massachusetts General Hospital, namely MGH54 and MGH63, and one donor from Lonza, namely HUM4111B. Cryopreserved hepatocytes were cultured in plating media for 16 hours, transferred to maintenance media for 4 hours. Cultured on serum-free media for 2 hours, then a compound was added. The hepatocytes were maintained on the serum-free media for 16 hours prior to gene expression analysis. Primary human hepatocytes were stored in the vapor phase of a liquid nitrogen freezer (about −130° C.).
(§2) Human hepatocytes cultured as described above were plated in 24-well format, adding 375,000 cells per well in a volume of 500 ul plating medium. Four hours before treatment, cells were washed with PBS and the medium was changed to either: fresh maintenance medium (complete) or modified maintenance medium.
(§3) Compound stocks were prepared at 1000× final concentration and added in a 2-step dilution to the medium to reduce risk of a compound precipitating out of solution when added to the cells, and to ensure reasonable pipetting volumes. One at a time, each compound was first diluted 10-fold in warm (about 37° C.) modified maintenance medium (initial dilution=ID), mixed by vortexing, and the ID was diluted 100-fold into the cell culture (e.g. 5.1 ul into 1 well of a 24-well plate containing 0.5 mL medium). The plate was mixed by carefully swirling and after all wells were treated and returned to the incubator overnight. If desired, separate plates/wells were treated with vehicle-only controls and/or positive controls. If using multi-well plates, controls were included on each plate. After about 18 hours, cells were harvested for further analysis, e.g., ChIP-seq, RNA-seq, ATAC-seq, etc.
(§4) This protocol is a modified version of the following protocols: MagMAX mirVana Total RNA Isolation Kit User Guide (Applied Biosystems #MAN0011131 Rev B.0), NEBNext Poly(A) mRNA Magnetic Isolation Module (E7490), and NEBNext Ultra Directional RNA Library Prep Kit for Illumina (E7420) (New England Biosystems #E74901).
(§5) The MagMAX mirVana kit instructions (the section titled “Isolate RNA from cells” on pages 14-17) were used for isolation of total RNA from cells in culture. Two hundred μl of Lysis Binding Mix was used per well of the multiwell plate containing adherent cells (usually a 24-well plate).
(§6) For mRNA isolation and library prep, the NEBNext Poly(A) mRNA Magnetic Isolation Module and Directional Prep kit was used. RNA isolated from cells above was quantified, and prepared in […] of each sample in 50 μl of nuclease-free water. This protocol may be run in microfuge tubes or in a 96-well plate.
All pass filter reads from each sample were mapped against the human genome (assembly GRCh38/GCA_000001405.15 “no alt” analysis set merged with hs38d1/GCA_000786075.2) using two pass mapping via STAR version 2.5.3a (alignment parameters alignIntronMin=20; alignIntronMax=1000000; outFilterMismatchNmax=999; outFilterMismatchNoverLmax=0.05; outFilterType=BySJout; outFilterMultimapNmax=20; alignSJoverhangMin=8; alignSJDBoverhangMin=1; alignMatesGapMax=1000000) (Dobin et al., Bioinformatics (2012) 29(1):15-21). Genomic alignments were converted to transcriptome alignments based on reference transcript annotations from the Human GENCODE Gene Set release 24 (Harrow et al., Genome Res. (2012) 22(9): 1760-1774). Using unique and multimapped transcriptomic alignments, gene-level abundance estimates were computed using RSEM version 1.3.0 (Li and Dewey, BMC Bioinformatics (2011) 12:323) in a strand-aware manner, and including confidence interval sampling calculations, to arrive at posterior mean estimates (PME) of abundances (counts and normalized FPKM—fragments per kilobase of exon per million mapped fragments) from the underlying Bayesian model. Standard QC were applied (read integrity, mapping statistics, library complexity, fragment bias) to remove unsatisfactory samples.
Consider `CC/C(=C(\c1ccccc1)c1ccc(OCCN(C)C)cc1)c1ccccc1` [Tamoxifen], for which the “ANGPTL3-LINEAR FOLD CHANGE” value is recorded as 0.2606.

Take `NC(=O)c1ccc(N(C(N)=O)c2c(F)cccc2F)nc1-c1ccc(F)cc1F` [VX-702]: the “ANGPTL3-LINEAR FOLD CHANGE” value is recorded as 0.4353.

As to `O=C(CCCCCCC(=O)Nc1ccccc1)NO` [Vorinostat (SAHA, MK0683), Vorinostat], the “ANGPTL3-LINEAR FOLD CHANGE” value was 0.3511.

For the molecule `CCn1c(=O)c(-c2cc[nH]n2)cc2c(C)nc(N)nc21` [Voxtalisib (XL765, SAR245409), Voxtalisib], the “ANGPTL3-LINEAR FOLD CHANGE” value is recorded as 0.4175.

On to `COCCn1c2c([n+](Cc3cnccn3)c1C)C(=O)c1ccccc1C2=O` [YM155 (Sepantronium Bromide), Sepantronium Bromide], for which the “ANGPTL3-LINEAR FOLD CHANGE” value is on record as 0.3487.

Consider `COc1cc(C(=O)NS(=O)(=O)c2ccccc2C)ccc1Cc1cn(C)c2ccc(NC(=O)OC3CCCC3)cc12` [Zafirlukast], for which the “ANGPTL3-LINEAR FOLD CHANGE” value is recorded as 0.4506.

A further experiment has as its system UGT1A1. Kind of experiment: RNA-seq of UGT1A1 expression in compound-treated primary human hepatocytes.
Details: not given
It counts as cell-based. The procedure:
as §1, §2, §3, §4, §5, §6
Standard QC were applied (read integrity, mapping statistics, library complexity, fragment bias) to remove unsatisfactory samples. […] Log 2 fold change and significance values were computed using PME count data (with replicates explicitly modeled versus pan-experiment controls), median ratio normalized, using maximum likelihood estimation rather than maximum a posteriori, and disabling the use of Cook's distance cutoff when determining acceptable adjusted p-values. […] RNA-seq signals were also normalized by read depth and visualized using the UCSC browser.
To identify small molecules that modulate target gene expression, primary human hepatocytes were prepared as a monoculture, and at least one small molecule compound was applied to the cells.
RNA-seq was performed to determine the effects of the compounds on the expression of the target genes in hepatocytes. Fold change was calculated by dividing the level of expression in the cell system that had been perturbed by the level of expression in an unperturbed system. Changes in expression having a p-value ≤0.05 were considered significant.
Significance was defined as an FPKM ≥1, a log 2(fold change) ≥0.5, and a q-value of ≤0.05 for all targets except for CPOX.
Regarding `CNC(=O)c1ccc(N2C(=S)N(c3cnc(C#N)c(C(F)(F)F)c3)C(=O)C23CCC3)cc1F` [ARN-509], the “UGT1A1 Fold Change (Log2)” value is on record as 1.16 Log2.

`Cc1cc(Nc2nc(N[C@@H](C)c3ncc(F)cn3)ncc2Cl)[nH]n1` [AZD1480]: the “UGT1A1 Fold Change (Log2)” value worked out at 0.93 Log2.

With `C[C@@H]1COCCN1c1cc(C2([S@](C)(=N)=O)CC2)nc(-c2cc[nH]c3nccc2-3)n1` [AZD6738], the “UGT1A1 Fold Change (Log2)” value came out at 1.03 Log2.

Consider `O=C1Nc2cc(Br)ccc2/C1=C1/Nc2ccccc2/C1=N\O` [BIO], for which the “UGT1A1 Fold Change (Log2)” value turned out to be 0.62 Log2.

Consider `Cc1ccc(-n2nc(C(C)(C)C)cc2NC(=O)Nc2ccc(OCCN3CCOCC3)c3ccccc23)cc1` [BIRB 796], for which the “UGT1A1 Fold Change (Log2)” value was 1.04 Log2.

Consider `C[C@@]1(C(=O)Nc2ccc(F)nc2)CCCN1c1nc(Nc2cc(C3CC3)n[nH]2)c2cccn2n1` [BMS-754807], for which the “UGT1A1 Fold Change (Log2)” value came to 1.33 Log2.

As to `C=C(c1ccc(C(=O)O)cc1)c1cc2c(cc1C)C(C)(C)CCC2(C)C` [Bexarotene], the “UGT1A1 Fold Change (Log2)” value was determined as 1.29 Log2.

For `C[C@H]1COC2=C1C(=O)C(=O)c1c2ccc2c1CCCC2(C)C` [Cryptotanshinone], the “UGT1A1 Fold Change (Log2)” value is given as 0.93 Log2.

With `Cc1nc(Nc2ncc(C(=O)Nc3c(C)cccc3Cl)s2)cc(N2CCN(CCO)CC2)n1` [Dasatinib], the “UGT1A1 Fold Change (Log2)” value stood at 0.67 Log2.

On to `CC[C@@](C)(Nc1ccnc(-c2c[nH]c3ncccc23)n1)C(=O)NCC(F)(F)F` [Decernotinib], for which the “UGT1A1 Fold Change (Log2)” value was 0.58 Log2.

Regarding `c1cc(-c2cnn3cc(-c4ccc(OCCN5CCCCC5)cc4)cnc23)ccn1` [Dorsomorphin], the “UGT1A1 Fold Change (Log2)” value is 0.57 Log2.

Consider `C=C1/C(=C\C=C2/CCC[C@]3(C)[C@@H]([C@H](C)/C=C/C=C/C(O)(CC)CC)CC[C@@H]23)C[C@@H](O)C[C@@H]1O` [EB1089], for which the “UGT1A1 Fold Change (Log2)” value is 0.88 Log2.

For `Cc1cc(C)c2c(c1)[C@@H](N(Cc1cc(C(F)(F)F)cc(C(F)(F)F)c1)c1nnn(C)n1)CCCN2C[C@H]1CC[C@H](C(=O)O)CC1` [Evacetrapib], the “UGT1A1 Fold Change (Log2)” value is listed as 0.78 Log2.

Turning to `CCn1c(=O)c(-c2ccc(-c3cncs3)cc2Cl)cc2cnc(Nc3ccc(N4CCN(C)CC4)cc3)nc21` [FRAX597], the “UGT1A1 Fold Change (Log2)” value came out at 0.61 Log2.

Take `OCCn1cc(-c2ccc3c(c2)CC/C3=N\O)c(-c2ccncc2)n1` [GDC-0879]: the “UGT1A1 Fold Change (Log2)” value worked out at 0.55 Log2.

Take `CC(C)c1onc(-c2c(Cl)cccc2Cl)c1COc1ccc(/C=C/c2cccc(C(=O)O)c2)c(Cl)c1` [GW4064]: the “UGT1A1 Fold Change (Log2)” value amounted to 0.92 Log2.

For `CCC1=C(C)CN(C(=O)NCCc2ccc(S(=O)(=O)NC(=O)N[C@H]3CC[C@H](C)CC3)cc2)C1=O` [Glimepiride], the “UGT1A1 Fold Change (Log2)” value amounted to 0.96 Log2.

For `Cc1ccc2nc(NC(=O)CSc3nc4c(c(=O)n3-c3ccccc3)SCC4)sc2c1` [IWP-2], the “UGT1A1 Fold Change (Log2)” value amounted to 0.64 Log2.

Turning to `Cn1cc(-c2ccc3nnc(C(F)(F)c4ccc5ncccc5c4)n3n2)cn1` [JNJ-38877605], the “UGT1A1 Fold Change (Log2)” value was found to be 1.09 Log2.
